Data taken from patent US8268884B2, “Derivatives of substituted tartaric acid and usage for preparing beta-secretase inhibitors” (Institute of Pharmacology and Toxicology Academy of …, priority 2006, dated 2012).

Target: BACE1 (Homo sapiens, UniProt P56817)
Sequence (P56817 46-501): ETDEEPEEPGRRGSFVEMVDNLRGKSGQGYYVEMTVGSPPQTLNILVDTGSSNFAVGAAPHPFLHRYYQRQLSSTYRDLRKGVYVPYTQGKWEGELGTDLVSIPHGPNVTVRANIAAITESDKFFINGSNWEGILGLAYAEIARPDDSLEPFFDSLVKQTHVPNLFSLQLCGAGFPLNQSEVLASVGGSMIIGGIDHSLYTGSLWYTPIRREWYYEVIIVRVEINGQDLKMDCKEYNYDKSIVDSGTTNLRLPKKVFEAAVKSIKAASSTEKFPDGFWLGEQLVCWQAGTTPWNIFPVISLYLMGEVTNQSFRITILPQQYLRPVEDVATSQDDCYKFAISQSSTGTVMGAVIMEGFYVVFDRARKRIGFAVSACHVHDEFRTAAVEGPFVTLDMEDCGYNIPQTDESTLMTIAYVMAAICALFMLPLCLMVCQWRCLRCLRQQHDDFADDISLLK
Assay: Determination of BACE1-inhibiting activity (fluorescence substrate cleavage)
Type: biochemical
Conditions: compound 100 μM; BACE1 1.0 U/ml; substrate 750 nM Rh-EVNLDAEFK-Quencher; sodium acetate buffer pH 4.5; 25° C., 60 minutes; read-out: Inhibitory rate (%)
Description: Determination of BACE1-Inhibiting Activity
A sodium acetate analytical buffer solution ([…], pH 4.5) containing BACE1 (1.0 U/ml), a substrate of BACE1 (750 nM Rh-EVNLDAEFK-Quencher), a compound of the present invention (100 μM) was incubated at 25° C. for 60 minutes. The fluorescence intensity was determined by using a TECANGENios fluorimeter with a slit width of 10 nm, an excitation wavelength of 535 nm and an emission wavelength of 585 nm. Inhibitory rate(%)={1−[(S−S0)/(C−C0)]}*100%
C: the fluorescence intensity of the control (BACE1, substrate and analytical buffer solution) as determined after incubating for 60 minutes.
C0: the fluorescence intensity of the control (BACE1, substrate and analytical buffer solution) as determined after incubating for 0 minute.
S: the fluorescence intensity of the sample (BACE1, substrate, compound of the present invention and analytical buffer solution) as determined after incubating for 60 minutes.
S0: the fluorescence intensity of the sample (BACE1, substrate, compound of the present invention and analytical buffer solution) as determined after incubating for 0 minute.
For `COC(=O)[C@H](Cc1ccccc1)NC(=O)[C@H](O)[C@@H](O)C(=O)Nc1ccc2ccccc2c1` [Example 19, methyl L-(2R,3R)-2-[2,3-dihydroxy-3-(naphthalen-2-ylcarbamoyl)-propionylamino]-3-phenyl-propionate], the inhibition at 100 µM was 35%. Work on `O=C(O)CCCNC(=O)[C@H](O)[C@@H](O)C(=O)NCc1ccccc1` [Example 14, L-(2R,3R)-4-(3-benzylcarbamoyl-2,3-dihydroxy-propionylamino)-butyric acid] yielded an inhibition at 100 µM of 22.5%. With `COC(=O)CCCNC(=O)[C@H](OC(C)=O)[C@@H](OC(C)=O)C(=O)Nc1ccc(Oc2ccccc2)cc1` [Example 3, methyl L-(2R,3R)-4-[2,3-diacetoxy-3-(4-phenoxy-phenylcarbamoyl)-propionylamino]-butyrate] the inhibition at 100 µM was 39%. In the case of `COC(=O)c1ccc(CNC(=O)[C@H](O)[C@@H](O)C(=O)Nc2ccc3ccccc3c2)cc1` [Example 17, methyl L-(2R,3R)-4-{[2,3-dihydroxy-3-(naphthyl-2-carbamoyl)-propionylamino]methyl}-benzoate], the inhibition at 100 µM is reported as 45.3%. With `COC(=O)C1CCC(CNC(=O)[C@H](O)[C@@H](O)C(=O)Nc2ccc3ccccc3c2)CC1` (stereo partly drawn) [Example 18, methyl L-(2R,3R)-4-{[2,3-dihydroxy-3-(naphthyl-2-carbamoyl)-propionylamino]methyl}-cyclohexanecarboxylate] the inhibition at 100 µM was 22.3%. In the case of `COC(=O)c1cc(NC(=O)[C@H](O)[C@@H](O)C(=O)NCc2ccccc2)cc(C(=O)OC)c1` [Example 16, dimethyl L-(2R,3R)-5-(3-benzylcarbamoyl-2,3-dihydroxy-propionylamino)-isophthalate], the inhibition at 100 µM is reported as 26.5%.

Test system: not given
Assay: not given
Conditions: not given
Work on `O=C(O)C1CCC(CNC(=O)[C@H](O)[C@@H](O)C(=O)NCc2ccccc2)CC1` (stereo partly drawn) [Example 15, L-(2R,3R)-4-[(3-benzylcarbamoyl-2,3-dihydroxy-propionylamino)methyl]-cyclohexanecarboxylic acid] yielded a melting point of 236 to 238 °C. Compound `COC(=O)C1CCC(CNC(=O)[C@H](O)[C@@H](O)C(=O)NCc2ccccc2)CC1` (stereo partly drawn) [Example 11, methyl L-(2R,3R)-4-(3-benzylcarbamoyl-2,3-dihydroxy-propionylaminomethyl)-cyclohexanecarboxylate] has a melting point of 153 to 154 °C. With `O=C(O)CCCNC(=O)[C@H](O)[C@@H](O)C(=O)NCc1ccccc1` [Example 14, L-(2R,3R)-4-(3-benzylcarbamoyl-2,3-dihydroxy-propionylamino)-butyric acid] the melting point was 169 to 170 °C. `O=C(O)c1ccc(CNC(=O)[C@H](O)[C@@H](O)C(=O)NCc2ccccc2)cc1` [Example 12, L-(2R,3R)-4-[(3-benzylcarbamoyl-2,3-dihydroxy-propionylamino)methyl]-benzoic acid] gave a melting point of 177 to 178 °C. Work on `O=C(O)[C@H](Cc1ccccc1)NC(=O)[C@H](O)[C@@H](O)C(=O)NCc1ccccc1` [Example 10, L-(2R,3R)-2-(3-benzylcarbamoyl-2,3-dihydroxy-propionylamino)-3-phenyl-propionic acid] yielded a melting point of 236 to 238 °C. With `COC(=O)CCCNC(=O)[C@H](O)[C@@H](O)C(=O)NCc1ccccc1` [Example 13, methyl L-(2R,3R)-4-(3-benzylcarbamoyl-2,3-dihydroxy-propionylamino)-butyrate] the melting point was 142 to 145 °C. `COC(=O)c1ccc(CNC(=O)[C@H](O)[C@@H](O)C(=O)NCc2ccccc2)cc1` [Example 8, methyl L-(2R,3R)-4-[(3-benzylcarbamoyl-2,3-dihydroxy-propionylamino)methyl]-benzoate] gave a melting point of 205 to 206 °C.
